Experimental data taken from patent publication US8309557B2, “Pyrimidin-4-ylpropanedinitrile derivatives, processes for their preparation and their use as herbicides and plant growth regulators” (Bayer Intellectual Property GmbH, priority 2009, dated 2012).

Columns and labels:
Type in all cases: in vivo
Matricaria inodora = assay: Herbicidal effect post-emergence, MATIN
Experimental: (§1) Seeds of mono- and dicotyledonous weed plants and crop plants are planted in wood-fiber pots in sandy loam, covered with earth and grown in a greenhouse under good growth conditions. 2 to 3 weeks after sowing, the test plants are treated in the single-leaf stage. The compounds according to the invention, formulated in the form of wettable powders (WP) or as emulsion concentrates (EC), are then sprayed onto the green plant parts as aqueous suspension or emulsion using an application rate of 600 to 800 l of water/ha (converted) with the addition of 0.2% by weight of wetting agent. After the test plants had been in the greenhouse for ca. 3 weeks under optimum growth conditions, the effect of the preparations is scored visually in comparison with untreated controls (herbicidal effect in percent (%): 100% effect=plants have died off, 0% effect=as control plants).

[1] = system: Polygonum (Fallopia) convolvulus; assay: Herbicidal effect post-emergence, POLCO
Experimental: as §1

Abutilon theophrasti [2] = assay: Herbicidal effect post-emergence, ABUTH
Experimental: as §1

Amaranthus retroflexus [3] = assay: Herbicidal effect post-emergence, AMARE
Experimental: as §1

Viola tricolor [4] = assay: Herbicidal effect post-emergence, VIOTR
Experimental: as §1

Stellaria media = assay: Herbicidal effect post-emergence, STEME
Experimental: as §1

Setaria viridis [5] = assay: Herbicidal effect pre-emergence, SETVI; conditions: 320 g/hectare, visual grading after 3 weeks vs untreated controls
Excerpt: (§2) Seeds of mono- and dicotyledonous weed plants and crop plants are planted in wood-fiber pots in sandy loam and covered with earth. The compounds according to the invention, formulated in the form of wettable powders (WP) or as emulsion concentrates (EC), are then applied to the surface of the covering earth as aqueous suspension or emulsion at an application rate corresponding to 320 g/hectare at an application rate of 600 to 800 l of water/ha (converted) with the addition of 0.2% wetting agent.
(§3) Following treatment, the pots are placed in a greenhouse and kept under good growth conditions for the test plants. The visual grading of the damage to the test plants is carried out after a test time of 3 weeks in comparison to untreated controls (herbicidal effect in percent (%): 100% effect=plants have died off, 0% effect=as control plants).

Amaranthus retroflexus [6] = assay: Herbicidal effect pre-emergence, AMARE; conditions: 320 g/hectare, visual grading after 3 weeks vs untreated controls
Excerpt: as §2, §3

[7] = system: Tripleurospermum inodorum; assay: Herbicidal effect pre-emergence, MATIN; conditions: 320 g/hectare, visual grading after 3 weeks vs untreated controls
Excerpt: as §2, §3

Veronica persica [8] = assay: Herbicidal effect pre-emergence, VERPE; conditions: 320 g/hectare, visual grading after 3 weeks vs untreated controls
Excerpt: as §2, §3

Veronica persica [9] = assay: Herbicidal effect post-emergence, VERPE
Experimental: as §1

Echinochloa crus-galli = assay: Herbicidal effect post-emergence, ECHCG
Experimental: as §1

Abutilon theophrasti [10] = assay: Herbicidal effect pre-emergence, ABUTH; conditions: 320 g/hectare, visual grading after 3 weeks vs untreated controls
Excerpt: as §2, §3

Setaria viridis [11] = assay: Herbicidal effect post-emergence, SETVI
Experimental: as §1

Viola tricolor [12] = assay: Herbicidal effect pre-emergence, VIOTR; conditions: 320 g/hectare, visual grading after 3 weeks vs untreated controls
Excerpt: as §2, §3

Ipomoea purpurea = assay: Herbicidal effect post-emergence, PHBPU
Experimental: as §1

SMILES | Effect in % in respect of stated plant, MATIN (Matricaria inodora) | Effect in % in respect of stated plant, POLCO [1] | Effect in % in respect of stated plant, ABUTH (Abutilon theophrasti [2]) | Effect in % in respect of stated plant, AMARE (Amaranthus retroflexus [3]) | Effect in % in respect of stated plant, VIOTR (Viola tricolor [4]) | Effect in % in respect of stated plant, STEME (Stellaria media) | Effect in % in respect of stated plant, SETVI (Setaria viridis [5]) | Effect in % in respect of stated plant, AMARE (Amaranthus retroflexus [6]) | Effect in % in respect of stated plant, MATIN [7] | Effect in % in respect of stated plant, VERPE (Veronica persica [8]) | Effect in % in respect of stated plant, VERPE (Veronica persica [9]) | Effect in % in respect of stated plant, ECHCG (Echinochloa crus-galli) | Effect in % in respect of stated plant, ABUTH (Abutilon theophrasti [10]) | Effect in % in respect of stated plant, SETVI (Setaria viridis [11]) | Effect in % in respect of stated plant, VIOTR (Viola tricolor [12]) | Effect in % in respect of stated plant, PHBPU (Ipomoea purpurea)
N#C[C-](C#N)c1nc(-c2ccc(Cl)cc2)nc(N)c1Cl.[Na+] [Ex. No. 304, Sodium [6-amino-5-chloro-2-(4-chlorophenyl)pyrimidin-4-yl](dicyano)methanide] | 90% | 80% | 80% | 100% | 80% | 80% | 80% | 90% | 80% | 100% |  |  |  |  |  | 
Cc1ccc(-c2nc(N)c(Cl)c(C(C#N)C#N)n2)cc1.N [Compound 296] | 90% |  | 80% | 90% |  |  |  | 100% |  | 100% | 90% | 80% | 80% |  |  | 
N.N#CC(C#N)c1nc(-c2ccc(Br)cc2)nc(N)c1Cl [Compound 321] | 100% | 100% | 90% | 100% | 90% | 80% |  | 90% |  | 100% | 90% | 90% |  | 80% | 100% | 
CC(C)c1nc(N)c(Cl)c(C(C#N)C#N)n1 [compound 265] | 90% | 90% | 80% | 100% |  | 90% |  |  |  |  | 90% |  |  |  |  | 100%
N.N#CC(C#N)c1nc(-c2ccc(Cl)c(C(F)(F)F)c2)nc(N)c1Cl [Compound 335] | 80% |  |  | 80% |  |  |  |  | 80% | 100% |  |  |  |  | 80% | 
C[N+](C)(C)C.N#C[C-](C#N)c1nc(-c2ccc(Cl)cc2)nc(N)c1Cl [Compound 312] | 90% | 90% | 85% | 90% | 80% | 80% | 90% | 95% |  | 100% | 95% | 85% |  | 90% | 100% | 
CN.N#CC(C#N)c1nc(-c2ccc(Cl)cc2)nc(N)c1Cl [Compound 309] | 85% | 90% | 90% | 95% | 85% | 80% |  | 85% |  | 100% | 90% | 90% |  | 80% | 100% | 
CN(C)C.N#CC(C#N)c1nc(-c2ccc(Cl)cc2)nc(N)c1Cl [Compound 311] | 90% | 90% | 90% | 90% | 80% | 80% | 90% | 100% | 90% | 100% | 90% | 90% | 80% | 80% | 100% | 
Cc1ccc(-c2nc(N)c(Cl)c(C(C#N)C#N)n2)cc1 [compound 12] | 80% | 80% | 80% | 90% |  |  |  | 100% |  | 100% | 90% | 80% | 80% |  |  | 
CNC.N#CC(C#N)c1nc(-c2ccc(Cl)cc2)nc(N)c1Cl [Compound 310] | 85% | 85% | 85% | 95% | 90% | 80% | 90% | 100% | 80% | 100% | 87% | 90% |  | 80% | 100% | 80%
N#CC(C#N)c1nc(-c2ccc(Cl)cc2F)nc(N)c1Cl [compound 110] | 90% | 95% |  | 90% | 90% | 90% | 80% | 100% |  | 100% | 90% | 80% |  | 80% | 90% | 80%
CNc1nc(-c2ccc(Cl)cc2)nc(C(C#N)C#N)c1Cl [Ex. No. 41, [5-Chloro-2-(4-chlorophenyl)-6-(methylamino)pyrimidin-4-yl]propanedinitrile] |  |  |  |  |  |  |  |  | 80% |  |  |  |  |  | 100% | 
